# From patent US10939692B2, “Method for culturing aquatic animals with aspartyl-dipeptides” (Cysal GmbH, priority 2015, dated 2021)
# Key:
# Type in all cases: in vivo
# Marsupenaeus japonicus = assay: Aquaculture screening experiment, kuruma shrimp growth on arginine-limited basal diet; settings: after two months
# Excerpt: Nearly all of the […] species relevant to aquaculture belong to three supra-orders: Ostariophysi ([…], catfish, and allies), Protacanthopterygii (e.g. pike, trouts and salmon), and Acanthopterygii (around 50% of all fish species, including all […], flatfish, tuna, etc.). In order to cover as much of the phylogenetic range as possible, fish species were chosen from each of these supra-orders (Ostariophysi; Clarias gariepinus, Protacanthopterygii; Oncorhychus mykiss, Acanthopterygii; Oreochromis niloticus). Additionally, kuruma shrimp (Marsupenaeus japonicus) was chosen as a representative species of crustacean due to its significance in the high-end market. At the end of the experiment, the individual weights were recorded and the data analyzed statistically. All experiments started with young fry or postlarvae. […] Water quality (oxygen levels, nitrite, and nitrate) was monitored weekly. […] Basal diet composition for Tilapia and Kuruma shrimp contained a calculated arginine content of about 1.35% (of diet) which is lower than the minimum requirements of both Tilapia and Kuruma shrimp: corn 40%, soybean meal 21%, rice polishings 14%, gluten 11%, wheat bran 5%, herring meal 5%, monocalcium phosphate 0.8%, limestone 0.7%, L-lysine HCl 0.7%, fish oil 0.5%, vitamin mineral premix 0.3%, sodium bicarbonate 0.15%, salt 0.15%, pellet binder 0.05%. […]
# [1] = system: Atlantic salmon (Salmo salar L.); assay: Salmon nutrition experiment (bioavailability, arginine retention, growth, safety)
# Excerpt: The objective of the experiment was to examine the in vivo bioavailability of the above described “β-L-aspartyl-R” dipeptides in fish for the first time and consequently to determine their applicability as a substitute of free amino acids sources in Atlantic salmon (Salmo salar L.) nutrition. Therefore, varying supplementation levels of β-L-aspartyl-L-arginine in contrast to a mixture of free amino acids L-arginine and L-aspartic acid were compared.
# 315 Atlantic salmon (96.33 g±11.47 g; Danish Salmon AS, Hirtshals, DK) were acclimatized for 14 d in the experimental rearing system. The tanks of the system were part of a recirculation system (3.5 m^3 water volume, turnover rate 2 h^−1). The water purification system consisted of a mechanical filter, a moving bed filter, and a protein skimmer. Water quality parameters were maintained within a safe range for the fish (7.2-7.6 pH; GMH 3530, Digital pH-/mV-/Thermometer, Greisinger electronic, D; 22.5±0.3° C., 8.5±0.4 mg/l O2; Handy Polaris; Oxy-Guard International A/S, Birkerod, Denmark; <0.4 mg/l NH4—N; <0.24 mg/l NO2—N; Microquant test kit for NH4 and NO2; Merck KgaA, Darmstadt, Germany). The light conditions were set to 14 h/10 h light/dark cycle. During acclimatization fish were fed a commercial salmon feed (Aller Gold 4 mm; AllerAqua A/S, Christiansfeld, Denmark). The fish were reared in 150 l aquaria. Triplicate fish groups (3×15) were fed to apparent satiation twice a day over a period of 10 weeks.
# In order to fulfill the nutritional demands of Atlantic salmon (except for arginine content), the different concentrations of the test substances were added to a basal diet which was produced with the following common ingredients used for fish nutrition: Fish meal (Clupea sp.) 9.91%, Blood meal 1.93%, Casein 3.05%, Corn gluten 20.80%, Wheat gluten 22.09%, Biolysine™ 1.48%, Wheat starch 25.43%, Fish oil 11.13%, Ca2PO4 0.46%, Vit/min premix 0.93%, TiO2 0.93%, and Carboxymethyl cellulose ad 100% (after adding the test supplements). The experiment was carried out with the resulting 7 dietary treatments:
# Samples of all experimental groups were analyzed for arginine retention in the lab of LUFA in Kiel. […] Crude protein content (N×6.25) was determined by the Kjeldahl method, crude lipid content after hydrolysis with hydrochloric acid followed by a petroleum ether extraction using a Soxhlet extraction system, DM after drying at 103° C. until constant weight, and ash content after 4 h incineration at 550° C. in a combustion oven (P300; Nabertherm, Lilienthal, Germany). Furthermore, gross energy was measured in a bomb calorimeter (C 200; IKA, Staufen, Germany).
# The statistical analyses were performed using SPSS 21.0 for Windows (SPSS Inc., Chicago, U.S.). […] Data were analyzed for variance homogeneity by Levene (p<0.05). […]
# Oreochromis niloticus = assay: Aquaculture screening experiment, Tilapia growth on arginine-limited basal diet; settings: after two months
# Excerpt: Nearly all of the […] species relevant to aquaculture belong to three supra-orders: Ostariophysi ([…], catfish, and allies), Protacanthopterygii (e.g. pike, trouts and salmon), and Acanthopterygii (around 50% of all fish species, including all […], flatfish, tuna, etc.). In order to cover as much of the phylogenetic range as possible, fish species were chosen from each of these supra-orders (Ostariophysi; Clarias gariepinus, Protacanthopterygii; Oncorhychus mykiss, Acanthopterygii; Oreochromis niloticus). Additionally, kuruma shrimp (Marsupenaeus japonicus) was chosen as a representative species of crustacean due to its significance in the high-end market. At the end of the experiment, the individual weights were recorded and the data analyzed statistically. All experiments started with young fry or postlarvae. All species except trout were housed during the experiments in parallel recirculation systems of fresh water. Marsupenaeus japonicus shrimp were maintained in seawater. Oreochromis niloticus and Clarias gariepinus were housed in 200-L tanks filtered by a commercial pond filter. Trout were housed in a smaller system composed of 70-l tanks connected in series to account for the species' higher oxygen demand and preference for stronger current. Water quality (oxygen levels, nitrite, and nitrate) was monitored weekly. Partial water replacements were performed if the desired levels were exceeded. (<3 mg O2/l, detectable nitrite, >25 mg/l nitrate). […] Basal diet composition for Tilapia and Kuruma shrimp contained a calculated arginine content of about 1.35% (of diet) which is lower than the minimum requirements of both Tilapia and Kuruma shrimp: corn 40%, soybean meal 21%, rice polishings 14%, gluten 11%, wheat bran 5%, herring meal 5%, monocalcium phosphate 0.8%, limestone 0.7%, L-lysine HCl 0.7%, fish oil 0.5%, vitamin mineral premix 0.3%, sodium bicarbonate 0.15%, salt 0.15%, pellet binder 0.05%. […]
# Oncorhynchus mykiss = assay: Aquaculture screening experiment, trout growth on arginine-limited basal diet; settings: after four months
# Excerpt: (§1) Nearly all of the […] species relevant to aquaculture belong to three supra-orders: Ostariophysi ([…], catfish, and allies), Protacanthopterygii (e.g. pike, trouts and salmon), and Acanthopterygii (around 50% of all fish species, including all […], flatfish, tuna, etc.). In order to cover as much of the phylogenetic range as possible, fish species were chosen from each of these supra-orders (Ostariophysi; Clarias gariepinus, Protacanthopterygii; Oncorhychus mykiss, Acanthopterygii; Oreochromis niloticus). Additionally, kuruma shrimp (Marsupenaeus japonicus) was chosen as a representative species of crustacean due to its significance in the high-end market. At the end of the experiment, the individual weights were recorded and the data analyzed statistically. All experiments started with young fry or postlarvae. All species except trout were housed during the experiments in parallel recirculation systems of fresh water. Marsupenaeus japonicus shrimp were maintained in seawater. Oreochromis niloticus and Clarias gariepinus were housed in 200-L tanks filtered by a commercial pond filter. Trout were housed in a smaller system composed of 70-l tanks connected in series to account for the species' higher oxygen demand and preference for stronger current. Water quality (oxygen levels, nitrite, and nitrate) was monitored weekly. Partial water replacements were performed if the desired levels were exceeded. (<3 mg O2/l, detectable nitrite, >25 mg/l nitrate). In order to examine the efficiency of dipeptide products after as feed supplements for aquaculture, β-L-aspartyl-arginine as obtained in Example 1 was used in combination with basal arginine-limited diets. The latter diets were supplemented with the said dipeptide products to a concentration of 1.25 or 2.5% (wt/wt), or with corresponding isonitrogenous concentrations of an aspartic acid-arginine mixture (to determine the effect of free amino acids alone). Basal diets were formulated from individual components in common use in the aquaculture feed industry to ensure realistic conditions. […]
# Clarias gariepinus = assay: Aquaculture screening experiment, African catfish growth on arginine-limited basal diet; settings: after four months
# Excerpt: as §1
smiles,measurement,setting,value
"N=C(N)NCCC[C@H](NC(=O)C[C@H](N)C(=O)O)C(=O)O [Asp-Arg, β-L-aspartyl-L-arginine]",average weight versus amino acid feeding and control,Marsupenaeus japonicus; 1.25%,higher than that of the amino acid feeding and that of the control group
same,mean,"Marsupenaeus japonicus; 1.25% supplement in basal diet, average weight",0.35 g
same,"safety (mortalities, behavior, postmortem inspection, tissue and blood analysis)","[1]; Atlantic salmon, 0.2-0.6% in diet, 10 weeks",safe for fish
same,weight gain at the highest level of supplementation,"[1]; Atlantic salmon, 0.6% supplementation, 10 weeks (FIG. 1)",not seen
same,whole body protein level,"[1]; Atlantic salmon, 10 weeks, compared to the free amino acid groups",higher body protein level
same,bioavailability of the dipeptide form versus the free form,[1]; in vivo,five-fold better
same,mean (wt in g),Oreochromis niloticus; 1.25% supplement in basal diet,1.84 g
same,mean (wt in g),Oreochromis niloticus; 2.5% supplement in basal diet,2.03 g
same,"final weight, % of the control",Oreochromis niloticus; feed supplemented with 2.5% dipeptide,over 120 % of the control
same,mean (wt in g),Oncorhynchus mykiss; 1.25% supplement in basal diet,13.63 g
same,mean (wt in g),Oncorhynchus mykiss; 2.5% supplement in basal diet,15.33 g
same,"average final weight, % of the control",Oncorhynchus mykiss; feed containing 2.5% dipeptides,around 115 % of the control
same,mean (wt in g),Clarias gariepinus; 1.25% (wt/wt) supplement in basal diet,6.63 g
same,mean (wt in g),Clarias gariepinus; 2.5% (wt/wt) supplement in basal diet,8.42 g
same,"average final weight, % of the control",Clarias gariepinus; addition of dipeptides,around 144 % of the control
